ChEMBL document CHEMBL1201862, “PubChem BioAssay data set” (2004)
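Five compound concentrations were applied to cells in 96-well plates for 48 hours; endpoints were derived by simple linear interpolation of the resulting dose-response curve. Abbreviation: GI50, concentration required for 50% inhibition of growth.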 Calls of active or inactive are those of the source. Cut-off read from the data, not from the text of the source: active = GI50 up to about 1.1 µM and inactive = higher.

What was measured:
Experiment in all cases: NCI-60 cell line screen, 48 h
A498 = test system: A498
DU-145 = test system: DU-145
SK-MEL-28 = test system: SK-MEL-28
UACC-257 = test system: UACC-257
KM12 = test system: KM12
MDA-MB-435 = test system: MDA-MB-435
RPMI-8226 = test system: RPMI-8226
M14 = test system: M14
SK-OV-3 = test system: SK-OV-3
OVCAR-5 = test system: OVCAR-5
786-0 = test system: 786-0
SF-295 = test system: SF-295
SN12C = test system: SN12C
UO-31 = test system: UO-31
NCI-H460 = test system: NCI-H460
NCI/ADR-RES = test system: NCI/ADR-RES
HOP-62 = test system: HOP-62
NCI-H226 = test system: NCI-H226
SR = test system: SR
SW-620 = test system: SW-620

COc1ccc2nc3ccc(OC)cc3c(SCCO)c2c1
GI50 (A498): > 58.1 µM (inactive)
GI50 (DU-145): 5.65 µM (inactive)
GI50 (SK-MEL-28): 55.8 µM (inactive)
GI50 (UACC-257): 32.7 µM (inactive)
GI50 (KM12): 22.5 µM (inactive)
GI50 (MDA-MB-435): 21.5 µM (inactive)
GI50 (RPMI-8226): 12.3 µM (inactive)
GI50 (M14): 77.3 µM (inactive)
GI50 (SK-OV-3): 54.5 µM (inactive)
GI50 (OVCAR-5): > 100 µM (inactive)
GI50 (786-0): 14.4 µM (inactive)
GI50 (SF-295): 49.2 µM (inactive)
GI50 (SN12C): 26.4 µM (inactive)
GI50 (UO-31): 29.3 µM (inactive)
GI50 (NCI-H460): 68.9 µM (inactive)
GI50 (NCI/ADR-RES): 27 µM (inactive)
GI50 (HOP-62): > 58.9 µM (inactive)
GI50 (NCI-H226): > 61.7 µM (inactive)
GI50 (SR): 19 µM (inactive)
GI50 (SW-620): 28.4 µM (inactive)

COC(=O)c1c2c(cc3c1CC1(C3)Cc3ccc4c(c3C1=O)CCC4)CCC2 (stereo not given)
GI50 (A498): 3.42 µM (inactive)
GI50 (DU-145): 4.65 µM (inactive)
GI50 (SK-MEL-28): 6.67 µM (inactive)
GI50 (UACC-257): 5.04 µM (inactive)
GI50 (KM12): 2.64 µM (inactive)
GI50 (MDA-MB-435): 0.6 µM (active)
GI50 (RPMI-8226): 3.23 µM (inactive)
GI50 (M14): 3.03 µM (inactive)
GI50 (SK-OV-3): 3.93 µM (inactive)
GI50 (OVCAR-5): > 21.1 µM (inactive)
GI50 (786-0): 3.51 µM (inactive)
GI50 (SF-295): 2.12 µM (inactive)
GI50 (SN12C): 4.2 µM (inactive)
GI50 (UO-31): 3.05 µM (inactive)
GI50 (NCI-H460): 4.84 µM (inactive)
GI50 (NCI/ADR-RES): 1.92 µM (inactive)
GI50 (HOP-62): 3.25 µM (inactive)
GI50 (NCI-H226): 5.09 µM (inactive)
GI50 (SR): 1.78 µM (inactive)
GI50 (SW-620): 4.07 µM (inactive)

CC(C)C(Cl)CCC(C)(Cl)C(=O)CBr (stereo not given)
GI50 (A498): 15 µM (inactive)
GI50 (DU-145): 17.8 µM (inactive)
GI50 (SK-MEL-28): 5.01 µM (inactive)
GI50 (UACC-257): 3.79 µM (inactive)
GI50 (KM12): 14.5 µM (inactive)
GI50 (MDA-MB-435): 4.18 µM (inactive)
GI50 (RPMI-8226): 0.634 µM (active)
GI50 (M14): 3.43 µM (inactive)
GI50 (SK-OV-3): 20 µM (inactive)
GI50 (OVCAR-5): 12.8 µM (inactive)
GI50 (786-0): 3.96 µM (inactive)
GI50 (SF-295): 19.3 µM (inactive)
GI50 (SN12C): 14.5 µM (inactive)
GI50 (UO-31): 5.98 µM (inactive)
GI50 (NCI-H460): 16.1 µM (inactive)
GI50 (NCI/ADR-RES): 6.81 µM (inactive)
GI50 (HOP-62): 8.22 µM (inactive)
GI50 (NCI-H226): 17.8 µM (inactive)
GI50 (SR): 0.845 µM (active)
GI50 (SW-620): 2 µM (inactive)

C=CC[C@H]1[C@@H](O[Si](C)(C)C(C)(C)C)[C@H](n2ccc(=O)[nH]c2=O)O[C@@H]1CO[Si](C)(C)C(C)(C)C
GI50 (A498): 3.01 µM (inactive)
GI50 (DU-145): 2.09 µM (inactive)
GI50 (SK-MEL-28): 1.55 µM (inactive)
GI50 (UACC-257): 2.45 µM (inactive)
GI50 (KM12): 1.65 µM (inactive)
GI50 (MDA-MB-435): 2 µM (inactive)
GI50 (RPMI-8226): 2.11 µM (inactive)
GI50 (M14): 1.57 µM (inactive)
GI50 (SK-OV-3): 1.36 µM (inactive)
GI50 (OVCAR-5): 1.5 µM (inactive)
GI50 (786-0): 1.56 µM (inactive)
GI50 (SF-295): 1.98 µM (inactive)
GI50 (SN12C): 1.52 µM (inactive)
GI50 (UO-31): 1.69 µM (inactive)
GI50 (NCI-H460): 1.9 µM (inactive)
GI50 (NCI/ADR-RES): 2.15 µM (inactive)
GI50 (HOP-62): 1.76 µM (inactive)
GI50 (NCI-H226): 4.11 µM (inactive)
GI50 (SR): 2.44 µM (inactive)
GI50 (SW-620): 1.82 µM (inactive)

CC1=C[C@@H](C)C[C@]2(C)CC[C@H](O2)[C@]23CC[C@](C(=O)O)(C[C@H](O2)[C@@H]2O[C@@](C)(CC2=O)[C@@H](O)[C@H]2CC[C@@]4(CCC[C@@H](O4)[C@H](C)C(=O)O[C@H]4C[C@H]([C@]5(O)OCC[C@H](C)[C@@H]5O)O[C@H]4C=C1)O2)O3
GI50 (A498): > 5.75 µM (inactive)
GI50 (DU-145): > 10 µM (inactive)
GI50 (SK-MEL-28): > 10 µM (inactive)
GI50 (UACC-257): > 10 µM (inactive)
GI50 (KM12): > 10 µM (inactive)
GI50 (MDA-MB-435): > 10 µM (inactive)
GI50 (RPMI-8226): > 10 µM (inactive)
GI50 (M14): > 9.38 µM (inactive)
GI50 (SK-OV-3): > 10 µM (inactive)
GI50 (OVCAR-5): > 10 µM (inactive)
GI50 (786-0): > 10 µM (inactive)
GI50 (SF-295): > 5.86 µM (inactive)
GI50 (SN12C): > 8.55 µM (inactive)
GI50 (UO-31): > 10 µM (inactive)
GI50 (NCI-H460): > 10 µM (inactive)
GI50 (NCI/ADR-RES): > 10 µM (inactive)
GI50 (HOP-62): > 9.59 µM (inactive)
GI50 (NCI-H226): > 5.71 µM (inactive)
GI50 (SR): > 10 µM (inactive)
GI50 (SW-620): > 10 µM (inactive)
